In patent US20080188508A1, “Methods and Therapies for Potentiating a Therapeutic Action of an Opioid Receptor Agonist and Inhibiting and/or Reversing Tolerance to Opioid Receptor Agonists” (priority 2007, published 2008):

Legend:
[1] = test system: CGRP-immunoreactive neurons in adult rat dorsal root ganglion cultures
Method: In this method, rats were decapitated and DRGs removed aseptically from the cervical, thoracic, lumbar, and sacral regions of the spinal cord. […] DRGs were minced, digested with 0.25% collagenase (Calbiochem) in Ham's F12 Medium (GIBCO/BRL) for 90 minutes at 37° C., and then trypsinized (0.25%) (GIBCO/BRL) for 1.5 hours at 37° C. Next, the tissues were triturated with a 19 gauge syringe in Dulbecco's Modified Eagle Medium (DMEM, GIBCO/BRL) containing 1% HEPES buffer, penicillin/streptomycin (1:100), and 10% Fetal Bovine Serum (GIBCO/BRL). Samples were then centrifuged at 500 g for 10 minutes. The resulting pellet was resuspended with DMEM and filtered through a cell strainer (70 μm, Falcon). DRG cells were seeded in a poly-D-lysine coated 96-well culture plate (Falcon) at a density of 5×10^4 cells/well and incubated at 37° C. with 5% CO2 and 95% O2 for the duration of the experiment. […]
To examine the effects of drug treatment on CGRP-immunoreactivity in the cultured DRG cells, the number of CGRP immunopositive cells was counted using an inverted phase microscope (Olympus CX2). […] The field of view in which CGRP-IR cells were counted measured 1 mm^2. […]
For the cultured DRG studies, the mean±s.e.mean of CGRP-immunopositive cells was obtained from 4 wells per treatment group in each of 3 separate cell cultures. Data are expressed as a percent of saline control wells. […]

Sprague Dawley rats = test system: Sprague Dawley rats
Method: Experiments were performed in accordance with guidelines of the Canadian Council on Animal Care using protocols approved by the University Animal Care Committee. Adult male Sprague Dawley rats (200-250 grams) (Charles River, Quebec) were housed in separate cages and maintained on a 12 hour light/12 hour dark cycle with access to food and water ad libitum.
Animals were anaesthetized with halothane (4%) and implanted with an indwelling intrathecal catheter. A small puncture was made in the atlanto-occipital membrane and a polythene catheter (PE-10; 7.5 cm long) inserted caudally so that the tip rested on the lumbar enlargement of the spinal cord. The rostral end was exteriorized to facilitate drug administration. Surgical wounds were closed with sutures and animals allowed to recover for one week. Animals showing signs of forelimb or hindlimb paralysis were excluded from experiments. Drugs were injected in a 10 μl volume (i.t.) followed by 10 μl of 0.9% saline to flush the catheter.
Response to an acute thermal nociceptive stimulus was assessed in rats using the tail-flick test. Radiant heat was applied to the dorsal surface of the tail using an analgesic meter and the time latency for removal of the tail from the stimulus was recorded. […] A cutoff of 10 seconds was used in both studies to prevent tissue injury.
Response to an acute mechanical nociceptive stimulus was assessed using the paw-pressure test. Using an air-filled inverted syringe, pressure was gradually applied to the dorsal surface of the hindpaw until a paw withdrawal response was observed and the value (mmHg) recorded. A cut-off of 300 mmHg was used to prevent tissue injury.
Tail-flick and paw-pressure nociceptive tests were performed both before and 30 minutes after drug injection. […] Nociceptive testing was performed both before and 30 minutes after each injection.
The day following ED50 testing, spinal cords from animals were processed for CGRP immunohistochemical staining as described infra.
Tail-flick and paw-pressure values were converted to a maximum percentage effect (M.P.E.): M.P.E.=100×[post-drug response−baseline response]/[maximum response−baseline response]. Data in the figures are expressed as mean±s.e.mean. ED50 values were determined using a non-linear regression analysis (Prism 2, GraphPad Software Inc., San Diego, Calif., USA). Statistical significance (p<0.05) was determined using a one-way analysis of variance (ANOVA) followed by a Student Newman-Keuls post hoc test for multiple comparisons between groups.

[2] = dose of AM-251 used in these experiments; Trang et al. Pain 2006; cited from earlier work
[3] = i.t. morphine 15 μg, first injection, both tail-flick and paw-pressure test

C=CCN1CC[C@]23c4c5ccc(O)c4O[C@H]2C(=O)CC[C@@]3(O)[C@H]1C5 [naloxone]
effect on the morphine-induced increase in CGRP-immunopositive neurons ([1]; pre-treatment with naloxone 10 μM, morphine 20 μM): blocked

Cc1c(C(=O)NN2CCCCC2)nn(-c2ccc(Cl)cc2Cl)c1-c1ccc(I)cc1 [AM-251, 1-(2,4-dichlorophenyl)-5-(4-iodophenyl)-4-methyl-N-1-piperidinyl-1H-pyrazole-3-carboxamide]
effect on basal nociceptive responses (Sprague Dawley rats; AM-251 3.2 μg administered alone over 5 days): did not have an effect | morphine ED50 value versus chronic saline treatment (Sprague Dawley rats; AM-251 3.2 μg alone for 5 days): did not significantly alter | effect on basal nociceptive response (Sprague Dawley rats; AM-251 3.2 μg in the absence of morphine on days 6-10): no effect | effect on the increase in morphine ED50 values (Sprague Dawley rats; AM-251 (1.6 μg or 3.2 μg) co-administered with i.t. morphine for 5 days): completely blocked the increase in ED50 values | effect on the increase in morphine ED50 value (Sprague Dawley rats; acute paradigm, co-treatment of AM-251 with morphine): suppressed the increase in ED50 value | morphine ED50 value versus saline-only control (Sprague Dawley rats; acute paradigm, drug without the other drug: single morphine injection then saline, or AM-251 3.2 μg alone): did not change | effect on baseline antinociceptive responses (Sprague Dawley rats; i.t. injections of AM-251 alone, acute paradigm, either test): no effect | morphine ED50 value versus saline-only animals (Sprague Dawley rats; morphine days 1-5 discontinued, then saline (row morphine) or AM-251 alone (row AM-251) on days 6-10): comparable to saline-only | effect on anandamide-induced antinociception [2]: selectively block | influence on acute morphine-induced analgesia [2]: no influence

CN1CC[C@]23c4c5ccc(O)c4O[C@H]2[C@@H](O)C=C[C@H]3[C@H]1C5.O=S(=O)(O)O [morphine, Morphine sulphate]
antinociceptive effect on daily injection for 10 days (Sprague Dawley rats; daily i.t. morphine (3.2 μg as printed) for 10 days, by day 5): progressive decline in morphine antinociception to baseline levels | time by which antinociceptive response returned to baseline (Sprague Dawley rats; [3]): ≤ 90 min | time of maximal antinociceptive response post-injection (Sprague Dawley rats; [3]): 30 min | increase in number of CGRP-immunopositive neurons compared to vehicle-treated controls ([1]; chronic morphine (20 μM) treatment for 5-days): approximately 57%
